Patent publication US12337037B2, “Taxol conjugate compounds, pharmaceutical compositions comprising the same, and methods for their use” (N1 Life, Inc, priority 2021, dated 2025)

Tests used:
[1] = tested on: breast cancer MCF7/MBA-MD-231 cells; assay: CCK-8 cytotoxicity / anti-proliferation assay, MCF7/MBA-MD-231; type: cell-based; details: all tested concentrations (500-4000 nM)
Description: (§1) Cytotoxicity Assay—CCK8 Cancer Cells
(§2) The CCK-8 assay was applied to study the cytotoxicity of the peptide drug conjugates and their inhibition of proliferation of cancer cells. First, 2˜10×10^3 cells (depending on the rate of growth of different cell lines) with 100 μL, DMEM media were seeded in normal culture medium into each well of a 96-well plate. The cells were then cultured overnight at 37° C. with 4˜5% CO2. Different doses (4000, 2000, 1000, 500 nM for Hep3B, Hep G2 and MCF7/MBA-MD-231; 1000, 333.3, 100.0, 33.33, 3.333, 1.000, 0.333 nM for MCF7/ADR, 22Rv1, CNE1, HCT116, DLD-1) of Taxol and peptide drugs were added. After 48˜72 hour incubation, CCK-8 solution was added to each well. The cells were then incubated at 37° C. for 4 hours. The optical density was measured at 450/650 nm using a multiscan spectrometer (PerkinElmer's EnSpire Multilabel Plate Reader). The optical density is linearly proportional to the number of living cells in the sample: […]

Hep G2 cells = assay: CCK-8 cytotoxicity / anti-proliferation assay, Hep G2; type: cell-based; details: 2000 nM
Description: as §1, §2

## CC(=O)N[C@@H](CSSCCCC(=O)OC(C(=O)O[C@H]1C[C@@]2(O)[C@@H](OC(=O)c3ccccc3)[C@@H]3[C@]4(OC(C)=O)CO[C@@H]4C[C@H](O)[C@@]3(C)C(=O)[C@H](OC(C)=O)C(=C1C)C2(C)C)[C@@H](NC(=O)c1ccccc1)c1ccccc1)C(=O)N[C@H](CCCNC(=N)N)C(=O)N[C@H](CCCNC(=N)N)C(=O)N[C@H](CCCNC(=N)N)C(=O)N[C@H](CCCNC(=N)N)C(=O)N[C@H](CCCNC(=N)N)C(=O)N[C@H](CCCNC(=N)N)C(=O)N[C@H](CCCNC(=N)N)C(=O)N[C@H](CCCNC(=N)N)C(N)=O (stereo partly drawn) [Compound 3, Ac-L-Cysteine (paclitaxel-4-mercaptobutanoate)-D-Arginine8-NH2]
[1]
  cancer cell inhibition compared to Compound 5 (FIG. 1): substantially superior to cancer cell inhibition compared to Compound 5 at all tested concentrations
Hep G2 cells
  anti-proliferation effect compared to Taxol and Compound 5 (FIG. 2B): greater than the anti-proliferation effect of Taxol and Compound 5
